According to publication PMC6199744, “Development of Chemical Proteomics for the Folateome and Analysis of the Kinetoplastid Folateome” (ACS Infectious Diseases, 2018):
Where two headings read alike, the source gives them in different places.

Key:
Format in all cases: binding
[1] = target: T1, HeLa cell extract proteins (Homo sapiens, UniProt Q14157)
T1 construct: endogenous in cells; host or cells: HeLa cell extract
T1 sequence (Q14157 1-1087): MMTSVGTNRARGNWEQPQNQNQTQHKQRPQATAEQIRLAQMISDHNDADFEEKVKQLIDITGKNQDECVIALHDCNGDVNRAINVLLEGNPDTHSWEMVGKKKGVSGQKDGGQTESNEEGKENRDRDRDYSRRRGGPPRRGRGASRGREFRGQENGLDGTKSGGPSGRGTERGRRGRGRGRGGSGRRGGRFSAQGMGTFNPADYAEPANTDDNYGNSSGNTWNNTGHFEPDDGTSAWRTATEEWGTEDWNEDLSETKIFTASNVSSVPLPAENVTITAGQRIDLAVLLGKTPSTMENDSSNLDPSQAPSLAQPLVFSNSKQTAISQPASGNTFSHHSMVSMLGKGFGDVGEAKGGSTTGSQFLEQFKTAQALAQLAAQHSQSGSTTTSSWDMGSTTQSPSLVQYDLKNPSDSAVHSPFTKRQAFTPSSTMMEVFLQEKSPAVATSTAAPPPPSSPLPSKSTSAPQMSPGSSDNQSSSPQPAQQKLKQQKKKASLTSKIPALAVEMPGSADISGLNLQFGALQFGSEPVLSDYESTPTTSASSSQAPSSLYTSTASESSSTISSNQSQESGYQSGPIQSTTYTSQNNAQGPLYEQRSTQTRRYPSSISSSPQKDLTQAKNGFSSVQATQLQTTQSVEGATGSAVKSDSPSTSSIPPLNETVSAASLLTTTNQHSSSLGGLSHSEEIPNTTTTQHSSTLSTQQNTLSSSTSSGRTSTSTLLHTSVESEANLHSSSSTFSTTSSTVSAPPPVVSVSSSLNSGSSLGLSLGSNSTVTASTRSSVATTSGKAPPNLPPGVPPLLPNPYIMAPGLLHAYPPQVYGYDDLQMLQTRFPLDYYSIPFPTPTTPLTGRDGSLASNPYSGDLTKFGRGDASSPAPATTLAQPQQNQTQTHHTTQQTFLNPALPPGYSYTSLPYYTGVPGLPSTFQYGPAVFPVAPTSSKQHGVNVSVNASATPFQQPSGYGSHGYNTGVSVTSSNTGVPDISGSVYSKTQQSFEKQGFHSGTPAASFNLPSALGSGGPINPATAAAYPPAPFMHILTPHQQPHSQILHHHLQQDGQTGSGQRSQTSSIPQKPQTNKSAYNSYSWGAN

[2] = target: T2, HeLa cell extract proteins (Homo sapiens, UniProt Q96RQ3); settings: captured protein MCCC1; HeLa
T2 construct: endogenous in cells; host or cells: HeLa cell extract
T2 sequence (Q96RQ3 42-725): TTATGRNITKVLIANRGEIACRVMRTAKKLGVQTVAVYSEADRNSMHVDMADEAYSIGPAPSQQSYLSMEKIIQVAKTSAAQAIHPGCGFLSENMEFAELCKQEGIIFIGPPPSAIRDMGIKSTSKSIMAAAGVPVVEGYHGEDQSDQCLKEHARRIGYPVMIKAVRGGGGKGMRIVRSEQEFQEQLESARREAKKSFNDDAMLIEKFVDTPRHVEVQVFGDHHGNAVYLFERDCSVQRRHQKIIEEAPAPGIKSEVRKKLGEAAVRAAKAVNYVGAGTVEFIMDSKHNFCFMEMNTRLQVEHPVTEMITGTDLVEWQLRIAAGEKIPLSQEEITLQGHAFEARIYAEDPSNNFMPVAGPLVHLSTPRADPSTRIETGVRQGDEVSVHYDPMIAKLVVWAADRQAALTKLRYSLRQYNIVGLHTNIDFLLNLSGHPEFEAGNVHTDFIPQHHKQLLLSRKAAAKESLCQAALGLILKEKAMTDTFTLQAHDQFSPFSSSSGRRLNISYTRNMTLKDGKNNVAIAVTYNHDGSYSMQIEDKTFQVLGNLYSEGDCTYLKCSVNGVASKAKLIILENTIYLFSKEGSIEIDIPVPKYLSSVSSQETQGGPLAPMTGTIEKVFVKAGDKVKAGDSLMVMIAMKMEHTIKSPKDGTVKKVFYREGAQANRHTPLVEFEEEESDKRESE

[3] = target: T3, HeLa cell extract proteins (Homo sapiens, UniProt P60660); settings: HeLa; protein MYL6
T3 construct: endogenous in cells; host or cells: HeLa cell extract
T3 sequence (P60660 1-151): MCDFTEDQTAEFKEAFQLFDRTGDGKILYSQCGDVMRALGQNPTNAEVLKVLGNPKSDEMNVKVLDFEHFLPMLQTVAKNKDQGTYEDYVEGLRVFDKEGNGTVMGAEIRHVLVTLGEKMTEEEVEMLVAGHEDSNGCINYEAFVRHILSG

[4] = target: T4, HeLa cell extract proteins (Homo sapiens, UniProt Q8WTW3); settings: protein COG1; HeLa
T4 construct: endogenous in cells; host or cells: HeLa cell extract
T4 sequence (Q8WTW3 1-980): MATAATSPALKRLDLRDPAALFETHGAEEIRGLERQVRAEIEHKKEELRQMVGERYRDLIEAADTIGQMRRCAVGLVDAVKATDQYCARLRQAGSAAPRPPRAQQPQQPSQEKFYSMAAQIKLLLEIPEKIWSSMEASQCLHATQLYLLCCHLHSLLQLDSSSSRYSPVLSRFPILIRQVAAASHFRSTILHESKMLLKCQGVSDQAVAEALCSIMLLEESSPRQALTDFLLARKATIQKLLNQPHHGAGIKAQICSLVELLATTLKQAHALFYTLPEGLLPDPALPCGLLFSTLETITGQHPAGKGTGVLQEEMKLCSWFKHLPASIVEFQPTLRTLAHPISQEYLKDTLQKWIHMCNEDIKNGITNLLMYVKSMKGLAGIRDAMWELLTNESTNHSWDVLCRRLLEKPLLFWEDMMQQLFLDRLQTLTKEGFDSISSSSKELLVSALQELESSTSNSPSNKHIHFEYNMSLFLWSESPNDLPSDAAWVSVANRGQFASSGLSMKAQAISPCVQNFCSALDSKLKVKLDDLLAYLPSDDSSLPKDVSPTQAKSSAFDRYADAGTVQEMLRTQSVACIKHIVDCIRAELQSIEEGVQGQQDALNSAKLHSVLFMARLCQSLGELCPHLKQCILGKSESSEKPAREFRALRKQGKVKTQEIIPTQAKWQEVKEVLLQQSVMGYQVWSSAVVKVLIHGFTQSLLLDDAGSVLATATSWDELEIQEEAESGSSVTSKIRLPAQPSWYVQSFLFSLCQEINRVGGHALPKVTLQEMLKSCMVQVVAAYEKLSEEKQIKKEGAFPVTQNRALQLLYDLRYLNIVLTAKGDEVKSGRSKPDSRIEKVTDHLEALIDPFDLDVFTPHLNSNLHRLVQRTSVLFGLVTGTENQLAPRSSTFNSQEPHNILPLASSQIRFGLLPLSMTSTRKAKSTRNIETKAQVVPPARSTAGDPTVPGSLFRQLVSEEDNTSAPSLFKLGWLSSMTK

| SMILES | fold changes relative to vehicle control ([1]; HeLa, protein UBAP2L) | fold changes relative to vehicle control [2] | fold changes relative to vehicle control [3] | fold changes relative to vehicle control [4] | fold changes relative to vehicle control [1] |
| --- | --- | --- | --- | --- | --- |
| Nc1nc2c(c(=O)[nH]1)N(C=O)C(CNc1ccc(C(=O)N[C@@H](CCC(=O)O)C(=O)O)cc1)CN2 (stereo partly shown) [LEU, leucovorin] | 0.9 | – | – | – | – |
| NCCCNc1ccc(C(=O)NC(CCC(=O)O)C(=O)O)cc1 (stereo not shown) [compound 7] | 1.08 | – | – | – | – |
| CCCCCCOc1cccc(Cc2cnc(N)nc2N)c1 [compound 2] | – | 1.15 | 1.3 | 1.21 | – |
| CCCCCCOc1ccc(Cc2cnc(N)nc2N)cc1 [compound 1] | – | 1.03 | 1.14 | 1 | – |
| Nc1nc2cccc(-c3ccccc3)c2n1Cc1ccc(Cl)c(Cl)c1 [compound 3] | – | 1.21 | 1.11 | 0.98 | – |
| NCCOCCOCC(=O)Nc1nc2ncc(CNc3ccc(C(=O)NC(CCC(=O)O)C(=O)O)cc3)nc2c(=O)[nH]1 (stereo not shown) [compound 6] | 1.1 | – | – | – | – |
| Nc1nc2[nH]cc(CCc3ccc(C(=O)N[C@@H](CCC(=O)O)C(=O)O)cc3)c2c(=O)[nH]1 [PTX, pemetrexed] | – | – | – | – | 0.98 |
